Experiment [1] has as its system phenyl-para-quinone writhing. Description: phenyl-para-quinone writhing assay in mice (analgesia). It counts as in vivo. The text has this:
The compounds of the present invention are useful as analgesic agents. […] Exptl. Biol. Med., 95, 729 (1957)].
For orientation: Writhing tests count abdominal constrictions after an irritant is injected.

The subject of experiment [2] is ear edema induced by topical application of TPA. Description: TPA-Induced Ear Edema (TPAEE). The conditions noted are these: for TPAEE (change in TPA-induced ear edema): 10 μg/ear topical, TPA 10 μg/ear, five hours. It counts as in vivo, Female Swiss Webster mice. The procedure:
The purpose of this assay was to determine the ability of a topically-applied compound to prevent ear edema induced by topical application of TPA (phorbol 12-myristate acetate). Female Swiss Webster mice topically received TPA (10 μg/ear) on the right ear and vehicle on the left ear. The test compound (10 μg/ear) was applied to both ears. After five hours, the animals were sacrificed and an ear punch (4 mm) was taken from each ear. The difference in right and left ear punch weights for each animal was determined to assess activity. […] See Young, J. M. et al., J. Invest. Dermatol., 80 (1983), pp. 48-52.

For experiment [3], the system named is Scopolamine Induced Memory Deficit. Description: Dark Avoidance Assay (reversal of scopolamine induced memory deficit). It counts as in vivo. To be noted: mice. As to the method: In this assay, mice are tested for their ability to remember an unpleasant stimulus for a period of 24 hours. A mouse is placed in a chamber that contains a dark compartment; a strong incandescent light drives it to the dark compartment, where an electric shock is administered through metal plates on the floor. The animal is removed from the testing apparatus and tested again, 24 hours later, for the ability to remember the electric shock.

In the case of `CCC(=O)O[C@](Cc1ccccc1)(c1ccccc1)[C@H](C)CN(C)C` [Propoxyphene, reference compound], the “% Inhibition of Writhing” value in experiment [1] (3.9 mg/kg of body wt. s.c., mice (standard)) was found to be 50%.

For `C[C@]12CCC(=O)C=C1CC[C@@H]1[C@@H]2[C@@H](O)C[C@@]2(C)[C@H]1CC[C@]2(O)C(=O)CO` [hydrocortisone, reference compound], in experiment [2] (standard, topical, mice), the “ED50 (TPA-induced ear edema)” value stood at 47 μg/ear.

For the molecule `CNC(=O)Oc1ccc2c(c1)[C@]1(C)CCN(C)[C@@H]1N2C` [Physostigmine, reference compound], the “% of Animals with Scopolamine Induced Memory Deficit Reversal” value (“% of Animals” for short) in experiment [3] (0.31 mg/kg s.c., 24 hours (reference)) amounted to 20%.

As to `Nc1ccncc1-c1noc2ccccc12.O=C(O)/C=C\C(=O)O` [3-(1,2-Benzisoxazol-3-yl)-4-pyridinamine maleate], the “TPAEE (change in TPA-induced ear edema)” value in experiment [2] is on record as -29%. Further, in experiment [1] (20 mg/kg of body wt. s.c., mice), the “% Inhibition of Writhing” value is 40%. Besides, the “% of Animals” value was 21% in experiment [3] (1.0 mg/kg s.c., 24 hours) and 33% in experiment [3] (10.0 mg/kg s.c., 24 hours).

For the molecule `CC(C)(C)C(=O)Nc1ccncc1-c1noc2ccccc12` [N-[3-(1,2-Benzisoxazol-3-yl)-4-pyridinyl]-2,2-dimethylpropanamide], the “TPAEE (change in TPA-induced ear edema)” value in experiment [2] is -23%. Further, the “% of Animals” value in experiment [3] (3.0 mg/kg s.c., 24 hours) is 20%.

For the origin of these results see patent US5055476A, “3-(1,2-benzisoxazol-3-yl)-4-pyridinamines and derivatives” (Hoechst-Roussel Pharmaceuticals Incorporated, priority 1990, dated 1991).
